Results taken from ChEMBL document CHEMBL3046389, “Synthesis and biological evaluation of novel hydroquinone dimethyl ethers as potential anticancer and antimicrobial agents” (2013).
Values after ≈ are worked out from the molar mass of the structure shown.

Experiments:
Type in all cases: functional
[1] = test system: ACHN; experiment: Anticancer activity against Homo sapiens (human) ACHN cells after 48 hr by SRB assay; details: for CC50: read-out: LC50 (the source's name)
[2] = test system: 786-0; experiment: Growth inhibition of Homo sapiens (human) 786-0 cells at 10 uM after 48 hr by SRB assay; details: 786-0, 48 h, read-out: GI
[3] = test system: SK-OV-3; experiment: Anticancer activity against Homo sapiens (human) SKOV3 cells after 48 hr by SRB assay; details: SK-OV-3, 48 h
[4] = test system: IGROV-1; experiment: Growth inhibition of Homo sapiens (human) IGROV1 cells at 10 uM after 48 hr by SRB assay; details: IGROV-1, 48 h, read-out: GI
[5] = test system: Candida albicans; experiment: Antimicrobial activity against Candida albicans DSM 70014 after 48 hr by two-fold serial broth dilution method; details: DSM 70014, 48 h
[6] = test system: MDA-MB-468; experiment: Growth inhibition of Homo sapiens (human) MDA-MB-468 cells at 10 uM after 48 hr by SRB assay; details: MDA-MB-468, 48 h, read-out: GI
[7] = test system: SNB-19; experiment: Growth inhibition of Homo sapiens (human) SNB19 cells at 10 uM after 48 hr by SRB assay; details: SNB-19, 48 h, read-out: GI
[8] = test system: NCI-H460; experiment: Anticancer activity against Homo sapiens (human) NCI-H460 cells after 48 hr by SRB assay; details: NCI-H460, 48 h; for CC50: read-out: LC50 (the source's name)
[9] = test system: HCT-116; experiment: Anticancer activity against Homo sapiens (human) HCT116 cells after 48 hr by SRB assay; details: HCT-116, 48 h; for CC50: read-out: LC50 (the source's name)
[10] = test system: EKVX; experiment: Anticancer activity against Homo sapiens (human) EKVX cells after 48 hr by SRB assay; details: for CC50: read-out: LC50 (the source's name)
[11] = test system: OVCAR-8; experiment: Anticancer activity against Homo sapiens (human) OVCAR8 cells after 48 hr by SRB assay; details: OVCAR-8, 48 h
[12] = test system: UACC-62; experiment: Growth inhibition of Homo sapiens (human) UACC62 cells at 10 uM after 48 hr by SRB assay; details: UACC-62, 48 h, read-out: GI
[13] = test system: A498; experiment: Anticancer activity against Homo sapiens (human) A498 cells after 48 hr by SRB assay; details: A498, 48 h
[14] = test system: A549; experiment: Anticancer activity against Homo sapiens (human) A549/ATCC cells after 48 hr by SRB assay; details: A549, 48 h; for CC50: read-out: LC50 (the source's name)
[15] = test system: BT-549; experiment: Anticancer activity against Homo sapiens (human) BT549 cells after 48 hr by SRB assay; details: BT-549, 48 h; for CC50: read-out: LC50 (the source's name)
[16] = test system: MCF7; experiment: Anticancer activity against Homo sapiens (human) MCF7 cells after 48 hr by SRB assay; details: MCF7, 48 h; for CC50: read-out: LC50 (the source's name)
[17] = test system: SF-295; experiment: Anticancer activity against Homo sapiens (human) SF295 cells after 48 hr by SRB assay; details: SF-295, 48 h; for CC50: read-out: LC50 (the source's name)
[18] = test system: OVCAR-5; experiment: Anticancer activity against Homo sapiens (human) OVCAR5 cells after 48 hr by SRB assay; details: OVCAR-5, 48 h; for CC50: read-out: LC50 (the source's name)
[19] = test system: HCC 2998; experiment: Growth inhibition of Homo sapiens (human) HCC2998 cells at 10 uM after 48 hr by SRB assay; details: HCC 2998, 48 h, read-out: GI
[20] = test system: NCI-H522; experiment: Anticancer activity against Homo sapiens (human) NCI-H522 cells after 48 hr by SRB assay; details: NCI-H522, 48 h; for CC50: read-out: LC50 (the source's name)
[21] = test system: KM12; experiment: Anticancer activity against Homo sapiens (human) KM12 cells after 48 hr by SRB assay; details: KM12, 48 h; for CC50: read-out: LC50 (the source's name)
[22] = test system: BT-549; experiment: Growth inhibition of Homo sapiens (human) BT549 cells at 10 uM after 48 hr by SRB assay; details: BT-549, 48 h, read-out: GI
[23] = test system: SNB-19; experiment: Anticancer activity against Homo sapiens (human) SNB19 cells after 48 hr by SRB assay; details: SNB-19, 48 h; for CC50: read-out: LC50 (the source's name)
[24] = test system: MDA-MB-231; experiment: Anticancer activity against Homo sapiens (human) MDA-MB-231/ATCC cells after 48 hr by SRB assay; details: MDA-MB-231, 48 h; for CC50: read-out: LC50 (the source's name)
[25] = test system: MDA-MB-435; experiment: Anticancer activity against Homo sapiens (human) MDA-MB-435 cells after 48 hr by SRB assay; details: MDA-MB-435, 48 h; for CC50: read-out: LC50 (the source's name)
[26] = test system: SK-MEL-2; experiment: Anticancer activity against Homo sapiens (human) SK-MEL-2 cells after 48 hr by SRB assay; details: SK-MEL-2, 48 h; for CC50: read-out: LC50 (the source's name)
[27] = test system: UO-31; experiment: Growth inhibition of Homo sapiens (human) UO31 cells at 10 uM after 48 hr by SRB assay; details: UO-31, 48 h, read-out: GI
[28] = test system: T47D; experiment: Anticancer activity against Homo sapiens (human) T47D cells after 48 hr by SRB assay; details: for CC50: read-out: LC50 (the source's name)
[29] = test system: Staphylococcus aureus; experiment: Antimicrobial activity against Staphylococcus aureus DSM 1104 after 48 hr by two-fold serial broth dilution method; details: DSM 1104, 48 h
[30] = test system: SN12C; experiment: Anticancer activity against Homo sapiens (human) SN12C cells after 48 hr by SRB assay
[31] = test system: OVCAR-4; experiment: Anticancer activity against Homo sapiens (human) OVCAR4 cells after 48 hr by SRB assay; details: OVCAR-4, 48 h; for CC50: read-out: LC50 (the source's name)
[32] = test system: T47D; experiment: Growth inhibition of Homo sapiens (human) T47D cells at 10 uM after 48 hr by SRB assay; details: read-out: GI

COc1ccc(OC)c(/C=C/c2nnc(S)n2-c2ccc(Cl)cc2)c1
GI50 [1]: 23.8 µM | TGI [1]: > 100 µM | CC50 [1]: > 100 µM | inhibition of growth at 10 µM [2]: 41.1% | GI50 [3]: 9.4 µM | LC50 [3]: > 100 µM | TGI [3]: > 100 µM | inhibition of growth at 10 µM [4]: 59.9% | MFC [5]: 100 µg/mL (≈ 267 µM) | MIC [5]: 100 µg/mL (≈ 267 µM) | inhibition of growth at 10 µM [6]: 61.2% | inhibition of growth at 10 µM [7]: 48.8% | GI50 [8]: 4.53 µM | TGI [8]: > 100 µM | CC50 [8]: > 100 µM | GI50 [9]: 4.05 µM | TGI [9]: > 100 µM | CC50 [9]: > 100 µM | GI50 [10]: 30 µM | TGI [10]: > 100 µM | CC50 [10]: > 100 µM | GI50 [11]: 28.4 µM | LC50 [11]: > 100 µM | TGI [11]: > 100 µM | inhibition of growth at 10 µM [12]: 57.2% | GI50 [13]: 6.66 µM | LC50 [13]: > 100 µM | TGI [13]: > 100 µM | GI50 [14]: 9.07 µM | TGI [14]: > 100 µM | CC50 [14]: > 100 µM | GI50 [15]: 9.38 µM | TGI [15]: > 100 µM | CC50 [15]: > 100 µM | GI50 [16]: 4.44 µM | TGI [16]: > 100 µM | CC50 [16]: > 100 µM | GI50 [17]: 4.16 µM | TGI [17]: > 100 µM | CC50 [17]: > 100 µM | GI50 [18]: 70.3 µM | TGI [18]: > 100 µM | CC50 [18]: > 100 µM | inhibition of growth at 10 µM [19]: 54.4% | GI50 [20]: 4.07 µM | TGI [20]: > 100 µM | CC50 [20]: > 100 µM | GI50 [21]: 4.02 µM | TGI [21]: > 100 µM | CC50 [21]: > 100 µM | inhibition of growth at 10 µM [22]: 32.8% | GI50 [23]: 12.7 µM | TGI [23]: > 100 µM | CC50 [23]: > 100 µM | GI50 [24]: 14.5 µM | TGI [24]: > 100 µM | CC50 [24]: > 100 µM | GI50 [25]: 2.83 µM | TGI [25]: > 100 µM | CC50 [25]: > 100 µM | GI50 [26]: 4.05 µM | TGI [26]: > 100 µM | CC50 [26]: > 100 µM | inhibition of growth at 10 µM [27]: 52.9% | GI50 [28]: 4.5 µM | TGI [28]: > 100 µM | CC50 [28]: > 100 µM | MBC [29]: 100 µg/mL (≈ 267 µM) | MIC [29]: 100 µg/mL (≈ 267 µM) | GI50 [30]: 6.07 µM | LC50 [30]: > 100 µM | TGI [30]: > 100 µM | GI50 [31]: 20.6 µM | TGI [31]: > 100 µM | CC50 [31]: > 100 µM

COc1ccc(OC)c(/C=C/c2nnc(Nc3ccc(Cl)cc3)o2)c1
GI50 [1]: 3.29 µM | TGI [1]: 19.9 µM | CC50 [1]: > 100 µM | inhibition of growth at 10 µM [2]: 72.1% | GI50 [3]: 2.79 µM | LC50 [3]: 60.6 µM | TGI [3]: 7.85 µM | MFC [5]: 50 µg/mL (≈ 140 µM) | MIC [5]: 50 µg/mL (≈ 140 µM) | inhibition of growth at 10 µM [6]: 34% | GI50 [8]: 3.77 µM | TGI [8]: > 100 µM | CC50 [8]: > 100 µM | GI50 [9]: 2.97 µM | TGI [9]: 13.1 µM | CC50 [9]: > 100 µM | GI50 [10]: 40.5 µM | TGI [10]: > 100 µM | CC50 [10]: > 100 µM | GI50 [11]: 4.91 µM | LC50 [11]: 76.4 µM | TGI [11]: 21 µM | GI50 [13]: 1.87 µM | LC50 [13]: > 100 µM | TGI [13]: 7.76 µM | GI50 [14]: 3.67 µM | TGI [14]: 17.8 µM | CC50 [14]: 78.6 µM | TGI [15]: > 100 µM | CC50 [15]: > 100 µM | GI50 [16]: 20.7 µM | TGI [16]: > 100 µM | CC50 [16]: > 100 µM | GI50 [17]: 6.15 µM | TGI [17]: 64.5 µM | CC50 [17]: > 100 µM | GI50 [18]: 32.5 µM | TGI [18]: > 100 µM | CC50 [18]: > 100 µM | inhibition of growth at 10 µM [19]: 44.6% | GI50 [20]: 7.13 µM | TGI [20]: 83.7 µM | CC50 [20]: > 100 µM | inhibition of growth at 10 µM [32]: 105% | GI50 [21]: 17.4 µM | TGI [21]: > 100 µM | CC50 [21]: > 100 µM | GI50 [23]: 13.8 µM | TGI [23]: > 100 µM | CC50 [23]: > 100 µM | GI50 [24]: 5.23 µM | TGI [24]: 53.1 µM | CC50 [24]: > 100 µM | GI50 [25]: 37 µM | TGI [25]: > 100 µM | CC50 [25]: > 100 µM | GI50 [26]: 9.66 µM | TGI [26]: > 100 µM | CC50 [26]: > 100 µM | inhibition of growth at 10 µM [27]: 95% | GI50 [28]: 2.54 µM | TGI [28]: > 100 µM | CC50 [28]: > 100 µM | MBC [29]: 50 µg/mL (≈ 140 µM) | MIC [29]: 50 µg/mL (≈ 140 µM) | GI50 [30]: 4.21 µM | LC50 [30]: > 100 µM | TGI [30]: > 100 µM | GI50 [31]: 2.44 µM | TGI [31]: 6.76 µM | CC50 [31]: > 100 µM
